Data reported in article doi:10.1101/2022.07.05.498881v1 (biorxiv, 2022).
Like-named read-outs stand apart in the source and are kept apart here.

Target: T1, SARS-CoV-2 MPro (main protease, 3CL protease, Nsp5) (Severe acute respiratory syndrome coronavirus 2, UniProt P0DTD1)
T1 construct: gene rep
Test: fluorogenic NSP7 peptide cleavage, […] h preincubation, […] °C
Assay type: biochemical

Row | Compound | IC50 [µM] | IC50 (pH 7.4, 0.05% Tween-20, 1 mM DTT, substrate 12.7 μM (Km), DMSO stock, possibly covalent warhead, read-out: IC50[DMSO]) [µM]
1 | CSc1ccncc1NC(=O)C(=O)c1ccc(F)cc1 [Z1669286714] | 110 | –
2 | Cc1ccc(F)cc1C(=O)C(=O)Nc1cncc(Br)c1C [Z5420225795] | 40 | –
3 | O=Cc1ncc(Br)cc1OCc1cccc([N+](=O)[O-])c1Cl ['9220] | 33 | –
4 | O=Cc1ncc(Br)cc1OCc1cccc([N+](=O)[O-])c1 ['9112] | 35 | –
5 | CC1(C)CN(C(=O)Nc2cncc3ccccc23)Cc2cc(Br)ccc2O1 [Z4924562413] | 13 | –
6 | O=Cc1cnc(N2CC(c3nc4ccccc4[nH]3)C2)nc1 ['5156] | 80 | –
7 | O=Cc1ncc(Br)cc1OCc1ccc(Cl)c(Br)c1 ['9121] | 6 | –
8 | O=C(Cc1cccnc1)N(Cc1ccccn1)c1ccc(Cl)cc1 [ZINC346371112] | 98 | –
9 | Cc1c(C(=O)C(C#N)C(=O)Nc2ccccc2)nnn1-c1ccccc1 (centres unmarked) ['6792] | 100 | –
10 | O=Cc1ncc(Br)cc1OCc1cc(Br)ccc1Cl ['8252] | 6 | –
11 | Cc1noc(C)c1CCCNc1nc(-c2ccncc2)nc2ccccc12 [ZINC301553312] | 63 | –
12 | Cc1cc(C(=O)C(=O)Nc2cnccc2F)ccc1F [ZINC5420738300] | 160 | –
13 | O=C1CN(Cc2ccc(F)cc2)C(=O)N1c1cncc2ccccc12 ['5548] | 30 | –
14 | O=Cc1ncc(Br)cc1OCc1ccc(Cl)c([N+](=O)[O-])c1 ['7021] | 1 | –
15 | O=Cc1ncc(Br)cc1OCc1ccc2c(c1)COC2 ['3620] | 55 | –
16 | CC1CN(C(=O)CCn2cc(Br)ccc2=O)Cc2ccccc2O1 (centres unmarked) [ZINC553840273] | 88 | –
17 | COc1ccc(Br)cc1C(=O)C(=O)Nc1cncc(C)c1 [Z1355254448] | 110 | –
18 | O=Cc1ncc(Br)cc1OCc1ccc(Cl)cc1 ['9313] | 22 | –
19 | CC1CCC2(NC(=O)N(c3cncc4ccccc34)C2=O)c2ccccc21 (centres unmarked) [Z4929616137] | 8 | –

Row | Compound | IC50 [µM] | IC50 (pH 7.4, 0.05% Tween-20, 1 mM DTT, substrate 12.7 μM (Km), DMSO stock, possibly covalent warhead, read-out: IC50[DMSO]) [µM]
20 | CC1(Cc2ccc(F)cc2)CCCN1c1ncc(C=O)cn1 (centres unmarked) ['0892] | 140 | –
21 | O=C1N[C@@]2(CCc3ccccc32)C(=O)N1c1cncc2ccccc12 ['6111] | 25 | –
22 | N#CC(C(=O)c1cccnc1)c1cc(F)cc(F)c1 (centres unmarked) ['0431] | 50 | –
23 | Cc1noc(CCCOc2c(C)cc(Br)cc2C=O)n1 ['2961] | 100 | –
24 | O=Cc1ncc(Br)cc1OCc1ccc2ccccc2c1 ['7356] | 26 | –
25 | N#CC(C(=O)c1ccc([N+](=O)[O-])o1)c1cccnc1 (centres unmarked) ['5103] | 20 | –
26 | C[C@H]1CN(C(=O)Nc2cncc3ccccc23)Cc2ccccc2O1 [SG-0001] | 55 | –
27 | N#Cc1ccc(Br)c(COc2cc(Br)cnc2C=O)c1 ['6690] | 2 | –
28 | O=C1NC(c2cccc3ccccc23)C(=O)N1c1cncc2ccccc12 (centres unmarked) [Z4929615577] | 10 | –
29 | COc1cc(C=O)c(OS(=O)(=O)CC2CCCCC2)cc1OC [ZINC271072260] | 143 | –
30 | Cc1ccc(COc2cc(Br)cnc2C=O)cc1[N+](=O)[O-] ['9218] | 12 | –
31 | Cn1cccc1C(=O)C(=O)Nc1cnccc1Oc1ccccc1 [Z2195811405] | ~200 | –
32 | O=Cc1cncc(C(=O)N2CCCC2c2cccc3ccccc23)c1 (centres unmarked) ['0292] | 100 | –
33 | COC(=O)c1cc(C#N)c(=O)n(Cc2cccc(F)c2Cl)c1 [ZINC338540162] | 30 | –
34 | O=Cc1ccc(Br)cc1OCc1ccc(Cl)c([N+](=O)[O-])c1 ['4218] | > 200 | –
35 | O=C(Cc1cncc2ccccc12)N1CCOc2ccc(Cl)cc2C1 [Z4946671001] | 5 | –
36 | O=Cc1ncc(Br)cc1OCc1cc(Cl)cc(Br)c1 ['6117] | 7 | –
37 | O=C1CCN(Cc2cccs2)C(=O)N1Cc1ccc[nH]c1=O [Z3535317212] | 29 | –
38 | ZINC795258204 | – | 177
